B1: mScarlet: nucleic acid vector with ITR, CMV promoter, mScarlet and bGHpA sequences (nucleic acid)
DNA: CCTGCAGGCAGCTGCGCGCTCGCTCGCTCACTGAGGCCGCCCGGGCGTCGGGCGACCTTTGGTCGCCCGGCCTCAGTGAGCGAGCGAGCGCGCAGAGAGGGAGTGGCCAACTCCATCACTAGGGGTTCCTGTGATGCGGTTTTGGCAGTACATCAATGGGCGTGGATAGCGGTTTGACTCACGGGGATTTCCAAGTCTCCACCCCATTGACGTCAATGGGAGTTTGTTTTGGCACCAAAATCAACGGGACTTTCCAAAATGTCGTAACAACTCCGCCCCATTGACGCAAATGGGCGGTAGGCGTGTACGGTGGGAGGTCTATATAAGCAGAGCTCGTTTAGTGAACCGTCAGATCGCCTGGAGACGCGTGAGCAAGGGCGAGGCAGTGATCAAGGAGTTCATGCGGTTCAAGGTGCACATGGAGGGCTCCATGAACGGCCACGAGTTCGAGATCGAGGGCGAGGGCGAGGGCCGCCCCTACGAGGGCACCCAGACCGCCAAGCTGAAGGTGACCAAGGGTGGCCCCCTGCCCTTCTCCTGGGACATCCTGTCCCCTCAGTTCATGTACGGCTCCAGGGCCTTCATCAAGCACCCCGCCGACATCCCCGACTACTATAAGCAGTCCTTCCCCGAGGGCTTCAAGTGGGAGCGCGTGATGAACTTCGAGGACGGCGGCGCCGTGACCGTGACCCAGGACACCTCCCTGGAGGACGGCACCCTGATCTACAAGGTGAAGCTCCGCGGCACCAACTTCCCTCCTGACGGCCCCGTAATGCAGAAGAAGACAATGGGCTGGGAAGCGTCCACCGAGCGGTTGTACCCCGAGGACGGCGTGCTGAAGGGCGACATTAAGATGGCCCTGCGCCTGAAGGACGGCGGCCGCTACCTGGCGGACTTCAAGACCACCTACAAGGCCAAGAAGCCCGTGCAGATGCCCGGCGCCTACAACGTCGACCGCAAGTTGGACATCACCTCCCACAACGAGGACTACACCGTGGTGGAACAGTACGAACGCTCCGAGGGCCGCCACTCCACCGGCGGCATGGACGAGCTGTACAAGTAAGCTGATCAGCCTCGACTGTGCCTTCTAGTTGCCAGCCATCTGTTGTTTGCCCCTCCCCCGTGCCTTCCTTGACCCTGGAAGGTGCCACTCCCACTGTCCTTTCCTAATAAAATGAGGAAATTGCATCGCATTGTCTGAGTAGGTGTCATTCTATTCTGGGGGGTGGGGTGGGGCAGGACAGCAAGGGGGAGGATTGGGAAGACAATAGCAGGCATGCTGGGGATGCGGTGGGCTCTATGGAGGAACCCCTAGTGATGGAGTTGGCCACTCCCTCTCTGCGCGCTCGCTCGCTCACTGAGGCCGGGCGACCAAAGGTCGCCCGACGCCCGGGCTTTGCCCGGGCGGCCTCAGTGAGCGAGCGAGCGCGCAGCTGCCTGCAGG
modifications: pITR-CMV-mScarlet-bGHpA

Key:
ATOH1, POU4F3, and GFI1 = assay: Relative quantification of ATOH1, POU4F3 and GFI1 RNA in HEK293FT cells transfected with individual plasmids; type: cell-based; details: FIG. 6A
Text: FIG. 6A is a bar graph showing the relative quantification of ATOH1, POU4F3, and GFI1 (APG) RN in HEK293FT cells transfected with the individual plasmids of FIGS. 4A-C.
The data in FIGS. 6A and 6B show overexpression of ATOH1, POU4F3 and GFI-1 in HEK293FT cells that were transfected with the vectors of FIGS. 4A-4D.

HEK293FT cells [1] = assay: Destabilizing domain (DD) functionality and reversibility, TMP dose response by fluorescence microscopy; type: cell-based; details: TMP 0.1, 1, 10, 20 and 100 μM, FIG. 8A
Experimental: FIG. 8A is a dose response curve showing the functionality and reversibility of the destabilizing domain (DD) using fluorescence microscopy. Serial dilutions of TMP (0.1 μM, 1 μM, 10 μM, 20 μM and 100 μM) were tested in the mScarlet and mScarlet-DD transfected HEK293FT cells.
(§1) HEK293FT cells were transfected with mScarlet and mScarlet-DD vectors (FIGS. 7A-7B). The data in FIGS. 8A and 8B show the functionality and reversibility of the destabilizing domain (DD) using fluorescence microscopy and flow cytometry, respectively.

[2] = tested on: hair cells and supporting cells in cochlear explants; assay: mScarlet positive hair cells and supporting cells in cochlear explants infected with AAVanc80, with and without TMP; type: cell-based, mouse; details: with and without 10 uM TMP, FIG. 10
Experimental: FIG. 9A is an image showing mScarlet positive cells in a P1-P3 mouse cochlea explant transfected with AAVanc80 vector at various MOIs. 10 μM TMP was added at a later time point.
FIG. 10 is an image showing mScarlet positive hair cells and supporting cells in a cochlear explants infected with AAVanc80 with and without 10 uM TMP that was added at a later time point.
as §1

HEK293FT cells [3] = assay: mScarlet positive HEK293FT cells with AAVanc80 vector at various MOIs, with or without TMP; type: cell-based; details: 10 μM TMP added later, FIGS. 9A and 9B
Experimental: FIG. 9B is an image showing mScarlet positive HEK293FT cells transfected with AAVanc80 vector at various MOIs. 10 μM TMP was added at a later time point.
as §1

| Molecule | ATOH1 and GFI-1 mRNA levels on overexpression of POU4F3 (ATOH1, POU4F3, and GFI1) | percentage of mScarlet positive cells (HEK293FT cells [1]) | mScarlet expression in cochlear explants [2] | mScarlet expression (HEK293FT cells [3]) |
| --- | --- | --- | --- | --- |
| POU4F3: nucleic acid vector with CMV promoter, human POU4F3 gene, 3×Flag, T2A, mScarlet and destabilizing domain | increase in ATOH1 and GFI-1 mRNA levels | – | – | – |
| mScarlet-DD: nucleic acid vector with ITR, CMV promoter, mScarlet, destabilizing domain (DD) and bGHpA sequences | – | increased proportionately with increasing concentration of TMP | only seen in the presence of TMP | primarily seen in mScarlet-DD transfected cells in the presence of TMP |
| B1 | – | remained constant regardless of TMP concentration | seen in hair cells and supporting cells | seen in all HEK293FT cells |
